Where two headings read alike, the source gives them in different places.
Columns and labels:
[1] = tested on: Peripheral blood mononuclear cells (PBMC); test: Mixed lymphocyte reaction (MLR), [3H]-thymidine incorporation; type: cell-based; details: Homo sapiens
Text: (§1) Various models may be used for testing an immunosuppressive effect. In vivo, for example, different transplantation models are available. They are strongly influenced by different immunogenicities, depending on the donor and recipient species used and depending on the nature of the transplanted organ. The survival time of transplanted organs can thus be used to measure the suppression of the immune response. In vitro, there exist also various models. The most used are lymphocyte activation tests. Usually activation is measured via lymphocyte proliferation. Inhibition of proliferation thus always means immunosuppression under the experimental conditions applied. There exist different stimuli for lymphocyte activation: • coculture of lymphocytes of […] (MLR = mixed lymphocyte reaction): lymphocytes expressing different minor and major antigens of the HLA-DR type (= alloantigens) activate each other non-specifically. • CD3 assay: here there is an activation of the T-lymphocytes via an exogenously added antibody (OKT3). This antibody reacts against the CD3 molecule located on the lymphocyte membrane. This molecule has a costimulatory function. […] This molecule is also located on the lymphocyte membrane, and delivers strong costimulatory signals.
Peripheral blood mononuclear cells (PBMC) were isolated from heparinized peripheral blood by density gradient centrifugation over Lymphoprep (Nycomed, Maorstua, Norway). Allogeneic PBMC or EBV-transformed human B cells [RPMI1788 (ATCC name CCL156)] which strongly express B7-1 and B7-2 were used as stimulator cells after irradiation with 30 Gy. MLR was performed in triplicate wells. After 5 days incubation at 37EC, 1 µCi [^3H]-thymidine was added to each cup. After a further 16 hours incubation, cells were harvested and counted in a β-counter.
The percent suppression of proliferation by drugs was counted using the formula Percent inhibition =((cpm + drugs) - cpm Cult. Med)/((cpm - drugs) - cpm Cult. Med.)x 100 [formula]

Highly purified T cells [2] = test: T cell proliferation induced by anti-CD3 mAb + PMA (BrdU incorporation); type: cell-based, Human; details: for IC50: Homo sapiens, T-cell
Text: as §1
(§2) T cells were purified by removing non-T cells. Briefly,monocytes were removed by cold agglutination. The resulting lymphoid cells were further purified by a cell enrichment immunocolumn [Cellect Human T (Biotex, Edmonton, Alberta, Canada)] by a process of negative selection.
(§3) Measurements of T cell proliferations induced by anti-CD3 mAb + PMA or anti-CD28 mAb + PMA
(§4) Highly purified T cells (10^6/ml) were stimulated by immobilized anti-CD3 àr anti-CD28 mAb in the presence of PMA. Anti-CD3 mAb (CLB-CD3; CLB, Amsterdam, The Netherlands) were fixed on the 96-microwell plates by incubating the wells with 50 µl of mAb solution (1/800 dilution in culture medium). Anti-CD28 mAb (CLB-CD28; CLB, Amsterdam, The Netherlands) 50 µl (1/650 dilution in culture medium) was added directly to the wells. Further, 20 µl PMA (Sigma, St. Louis, MO, USA) solution (final concentration: 0.5 ng/ml) was added. Subsequently, 20 µl of immunosuppressants were added by serial dilution in triplicate wells. Finally 100 µl of the T cell suspension (10^6/ml) was added. After 48-hour incubation at 37EC in 5% CO2 20 Φl BrdU (100 ΦM solution) (Cell Proliferation Elisa, Boehringer-Mannheim Belgium) was added to each well. After a further overnight incubation the T cell proliferation was measured using a colorimetric immunoassay for qualification of cell proliferation based on measurements of the incorporation of BrdU during DNAsynthesis. The optical density (OD) was measured by a Behring EL311 plate reader at 450 nm (reference wavelength: 690 nm). The percent suppression of proliferation by drugs was counted using the formula: Per cent inhibition =((OD + drugs) - (OD Cult. Med.))/((OD - drugs) - (OD Cult. Med.))x 100 [formula]

Highly purified T cells [3] = test: T cell proliferation induced by anti-CD28 mAb + PMA (BrdU incorporation); type: cell-based, Human; details: for IC50: Homo sapiens, T-cell
Text: as §1, §2, §3, §4

[4] = Table III, comparison immunosuppressants, read-out: IC50 MLR
[5] = Table III, comparison immunosuppressants, read-out: IC50 aCD3
[6] = Table III, comparison immunosuppressants, read-out: IC50 aCD28
[7] = Table II, read-out: IC50 in µM of pteridine derivative MLR
[8] = untitled structure table, no unit printed there, same values in Table II as IC50 in µM, read-out: MLR
[9] = Table II, read-out: IC50 in µM of pteridine derivative ACD3
[10] = untitled structure table, no unit printed there, same values in Table II as IC50 in µM, read-out: aCD3
[11] = Table II, read-out: IC50 in µM of pteridine derivative aCD28
[12] = untitled structure table, no unit printed there, same values in Table II as IC50 in µM, read-out: aCD28
[13] = Table IV, known pteridine derivatives, IC50 subranges, read-out: MLR
[14] = Table IV, known pteridine derivatives, IC50 subranges, read-out: aCD3
[15] = Table IV, known pteridine derivatives, IC50 subranges, read-out: aCD28
[16] = untitled structure table, IC50 subranges, read-out: MLR
[17] = untitled structure table, IC50 subranges, read-out: aCD3
[18] = untitled structure table, IC50 subranges, read-out: aCD28

SMILES | IC50 [1, 7] | IC50 [1, 8] | IC50 (Highly purified T cells [2]; [9]) | IC50 (Highly purified T cells [2]; [10]) | IC50 (Highly purified T cells [3]; [11]) | IC50 (Highly purified T cells [3]; [12]) | other results
CO[C@H]1C[C@@H]2CC[C@@H](C)[C@@](O)(O2)C(=O)C(=O)N2CCCC[C@H]2C(=O)O[C@H]([C@H](C)C[C@@H]2CC[C@@H](O)[C@H](OC)C2)CC(=O)[C@H](C)/C=C(\C)[C@@H](O)[C@@H](OC)C(=O)[C@H](C)C[C@H](C)/C=C/C=C/C=C/1C [Rapamycin, reference compound] |  |  |  |  |  |  | IC50 [1, 4]: 0.001 µM; IC50 (Highly purified T cells [2]; [5]): 0.001 µM; IC50 (Highly purified T cells [3]; [6]): 0.001 µM
CCCCCOc1nc(N)nc2ncc(C=Cc3ccccc3)nc12 [Compound 1, 2-amino-4-pentoxy-6-styrylpteridine] | 15 µM | 15 µM | 110 µM | 110 µM | 80 µM | 80 µM | 
Cc1ccc(-c2cnc3nc(N)nc(N(C)C)c3n2)cc1 [Compound 15, 2-amino-4-dimethylamino-6-(4-tolyl)pteridine] | 3.6 µM | 3.6 µM | 4.5 µM | 4.5 µM | 3.9 µM | 3.9 µM | 
Cc1oncc1C(=O)Nc1ccc(C(F)(F)F)cc1 [Leflunomide, reference compound] |  |  |  |  |  |  | IC50 [1, 4]: 25 µM; IC50 (Highly purified T cells [2]; [5]): 15 µM; IC50 (Highly purified T cells [3]; [6]): 20 µM
COc1ccc(-c2cnc3nc(N)nc(N(Cc4ccccc4)Cc4ccccc4)c3n2)cc1 [Compound 27, 2-amino-4-dibenzylamino-6-(4-methoxyphenyl) pteridine] | 50 µM | 50 µM | 20 µM | 20 µM | 15 µM | 15 µM | 
CCOCc1cnc2nc(N)[nH]c(=O)c2n1 [CH2OC2H5, reference compound] |  |  |  |  |  |  | IC50 [1, 13]: > 151 µM; IC50 (Highly purified T cells [2]; [14]): > 151 µM; IC50 (Highly purified T cells [3]; [15]): > 151 µM
COc1ccc(-c2cnc3nc(N)nc(N4CCN(C)CC4)c3n2)cc1OC [Compound 44] | 2 µM | 2 µM | 7.3 µM | 7.3 µM | 6.5 µM | 6.5 µM | 
Cc1nc2nc(N)nc(N)c2nc1-c1ccccc1 [Compound 6, 2,4-diamino-6-phenyl-7-methylpteridine] | > 200 µM | > 200 µM | > 200 µM | > 200 µM | > 200 µM | > 200 µM | 
Cc1ccc(-c2cnc3nc(NCCO)nc(N)c3n2)cc1 [Compound 11, 2-hydroxyethylamino-4-amino-6-(4-tolyl)pteridine] | > 200 µM | > 200 µM | 200 µM | 200 µM | 160 µM | 160 µM | 
COc1nc2nc(N)nc(OC)c2nc1C=Cc1ccccc1 [Compound 3, 2-amino-4-methoxy-6-styryl-7-methoxypteridine] | 25 µM | 25 µM | 160 µM | 160 µM | 100 µM | 100 µM | 
C=CC[C@@H]1/C=C(\C)C[C@H](C)C[C@H](OC)[C@H]2O[C@@](O)(C(=O)C(=O)N3CCCC[C@H]3C(=O)O[C@H](/C(C)=C/[C@@H]3CC[C@@H](O)[C@H](OC)C3)[C@H](C)[C@@H](O)CC1=O)[C@H](C)C[C@@H]2OC [FK506, tacrolimus, reference compound] |  |  |  |  |  |  | IC50 [1, 4]: 0.001 µM; activity in the anti-CD3 + PMA test (Highly purified T cells [2]): only active; IC50 (Highly purified T cells [2]; [5]): 0.001 µM; activity in the anti-CD28 + PMA test (Highly purified T cells [3]): not suppressive
Nc1nc(N2CCOCC2)c2nc(-c3ccc4c(c3)OCO4)cnc2n1 [Compound 56, 2-amino-4-morpholino-6-(3,4-formylidene-3,4-dihydroxyphenyl)pteridine] |  |  |  |  |  |  | IC50 [1, 16]: 1 to 15 µM; IC50 (Highly purified T cells [2]; [17]): 16 to 150 µM; IC50 (Highly purified T cells [3]; [18]): 16 to 150 µM
Nc1nc(NO)c2nc(-c3ccccc3)cnc2n1 [Compound 13, 2-amino-4-hydroxylamino-6-phenylpteridine] | 140 µM | 140 µM | > 200 µM | > 200 µM | > 200 µM | > 200 µM | 
CCCN(CCC)c1nc(N)nc2ncc(-c3ccc(OC)c(OC)c3)nc12 [Compound 32, 2-amino-4-dipropylamino-6-(3,4-dimethoxyphenyl)pteridine] | 2.2 µM | 2.2 µM | 0.8 µM | 0.8 µM | 0.7 µM | 0.7 µM | 
Cc1ccc(-c2cnc3nc(N)nc(N)c3n2)cc1 [Compound 7, 2,4-diamino-6-(4-tolyl)pteridine] | > 200 µM | > 200 µM | 110 µM | 110 µM | 25 µM | 25 µM | 
CNCc1cnc2nc(N)[nH]c(=O)c2n1 [CH2NHCH3, reference compound] |  |  |  |  |  |  | IC50 [1, 13]: > 151 µM; IC50 (Highly purified T cells [2]; [14]): > 151 µM; IC50 (Highly purified T cells [3]; [15]): > 151 µM
CN(C)c1nc(N)nc2ncc(-c3ccc4c(c3)OCO4)nc12 [Compound 57, 2-amino-4-dimethylamino-6-(3,4-formylidene-3,4-dihydroxyphenyl)pteridine] |  |  |  |  |  |  | IC50 [1, 16]: > 151 µM; IC50 (Highly purified T cells [2]; [17]): 16 to 150 µM; IC50 (Highly purified T cells [3]; [18]): 16 to 150 µM
Nc1nc(N2CCNCC2)c2nc(-c3ccccc3)cnc2n1 [Compound 46, 2-amino-4-piperazino-6-phenylpteridine] | 12 µM | 12 µM | 11.7 µM | 11.7 µM | 5 µM | 5 µM | 
CN(C)c1nc(N)nc2ncc(-c3ccccc3)nc12 [Compound 14, 2-amino-4-dimethylamino-6-phenylpteridine] | 5 µM | 5 µM | 15 µM | 15 µM | 15 µM | 15 µM | 

From EP1144412B1, “IMMUNOSUPPRESSIVE EFFECTS OF PTERIDINE DERIVATIVES” (4 AZA Bioscience nv, priority 1998, dated 2000)
